Two substances from US6458764B1, “GRF analogs with increased biological potency” (Theratechnologies Inc., priority 1995, dated 2002) can be followed below.

Common to all, as to format: in vivo, pigs (Landrace x Yorkshire)
The test system of assay [1] is serum IGF-I. Briefly: Comparative effects of GRF analogs on IGF-I levels in pigs (Example II, D-IGF-I, FIG. 1). The settings on record: 20 μg/kg 2×/day S.C., days 1 to 5, n=8 pigs per group. The procedure: This was a 5-day treatment, twice a day S.C. administration of one single dose of each test article vs saline. This experiment was conducted to compare the efficacy of (Aminohexanoyl)0 hGRF (1-29) NH2, (Hexylformiate)0 hGRF (1-29) NH2, (Hexenoyl trans-2)0 hGRF (1-29) NH2, (Hexenoyl trans-3)0 hGRF (1-29) NH2 and (Muconoyl)0 hGRF (1-29) NH2 to that of(Hexanoyl)0 hGRF (1-29) NH2.
ADMINISTRATION: Two daily subcutaneous injections.
(§1) TEST SYSTEM: Landrace x Yorkshire pigs.
ANIMAL DESCRIPTION: Fifty six (56) growing barrows pigs weighing 35 kg at the time of purchase.
DESIGN: Fifty six (56) pigs were randomly distributed into 7 experimental groups (n=8 pigs per group). Each group received two daily S.C. administration of the following treatments (volume: 3 ml, S.C. injection).
Treatments were administered from day 1 to 5. Immediately before the injections, one blood sample were collected from each animal, and additional blood samples were collected on day 6.
Blood samples were allowed to clot, serum was harvested by centrifugation and submitted to IGF-I assays.
Results are shown in FIG. 1 as D-IGF-I, which is defined as the increase in IGF-I levels from day 1 (pretreatment levels) to day 6 (after 5 days of GRFs administrations).

In assay [2] the test system is pig serum GH. Briefly: Intravenous GH-releasing potency in pigs (Example III). Particulars: for effect on GH area under the curve (0 to 300 minutes following injection): I.V., FIG. 3. The procedure:
This experiment was conducted to test the I.V. acute GH-releasing potency of (Hexenoyl trans-3)0 hGRF (1-29) NH2, a GRF analog, in a model physiologically close to human and to compare it to that of hGRF(1-29)NH2.
(Hexenoyl trans-3)0 hGRF (1-29) NH2 is a combination of the natural hGRF(1-29)NH2 and natural fatty acids. This study was a multidose, single I.V. injection study.
ADMINISTRATION: intravenous acute injection.
as §1
DESIGN: […] pigs (4 spare animals) were cannulated (a catheter surgically implanted in one jugular vein) within on week, before the study. On days 1 and 7, cannulated animals were randomly distributed into 7 groups (n=4 pigs per group).
Blood samples for pGH assay were collected every 20 min from 1 hour before to 5 hours after GRF injections, with additional samplings 10 and 30 min after injection (n=21 samples). Blood samples are allowed to clot at +4° C. Serum will be harvested by centrifugation, stored at −20° C. and submitted to pGH assays.

Assay [3] has as its system pig serum GH. Put plainly: Subcutaneous GH-releasing potency in pigs (Example IV). Particulars: for effect on GH area under the curve, 0 to 420 minutes following injection: S.C., FIG. 5. Here is the method: This experiment was conducted to test the S.C. acute GH-releasing potency of (Hexenoyl trans-3)0 hGRF (1-29) NH2, a GRF analog, in a model physiologically close to human and to compare it to that of hGRF(1-29)NH2.
ADMINISTRATION: Subcutaneous acute injection.
as §1
DESIGN: Thirty six (36) pigs (4 spare animals) were cannulated (a catheter surgically implanted in one jugular vein) within one week, before the study. On days 1 and 7, cannulated animals were randomly distributed into 8 groups (n=4 pigs per group).
Blood samples for pGH assay were collected every 20 min from 1 hour before to 7 hours after GRF injections, (n=25 samples). Blood samples were allowed to clot at +4CC. Serum is harvested by centrifugation, stored at −20° C. and submitted to pGH assays.

Assay [4] concerns serum IGF-I. Put plainly: Repeated S.C. administrations of GRF analogs, serum IGF-I levels in pigs (Example I, Experiments 1-3; radioimmunoassay). Particulars: for serum IGF-I, Day 1 (pretreatment): pretreatment baseline; for increase in IGF-I levels: 20 μg/kg BID SC, P<0.05. Here is the method: The objective of these experiments was to assess the potential of the GRF analogs as anabolic agents.
Therefore, in order to investigate the anabolic potency of the fatty acid-GRF analogs, their ability to increase IGF-I levels following repeated S.C. administrations in pig was evaluated.
26 Landrace x Yorkshire castrated male pigs (40-45 kg BW) were randomly distributed into 4 experimental groups:
Each animal was injected BID (twice a day) subcutaneously for 4 consecutive days. One blood sample was collected each morning prior to the first injection of the day, and the day after the last injection, for IGF-I measurement.
40 Landrace x Yorkshire castrated male pigs (40-45 kg BW) were randomly distributed into 5 experimental groups:
Each animal was injected BID (twice a day) subcutaneously for 5 consecutive days. One blood sample was collected each morning prior to the first injection of the day, and the day after the last injection, for IGF-I measurement.
48 Landrace x Yorkshire castrated male pigs (40-45 kg BW) were randomly distributed into 6 experimental groups:
The selected doses were 30 μg/kg for hGRF(1-44)NH2 analogs and 20 μg/kg for hGRF(1-29)NH2 analogs, which give identical doses on a molar basis. Each animal was injected BID (twice a day) subcutaneously for 5 consecutive days. One blood sample was collected each morning prior to the first injection of the day, and the day after the last injection, for IGF-I measurements.
IGF-I levels were measured in pig serum by double antibody radioimmunoassay after formic acid-acetone extraction, as previously described (Abribat T. et al., 1993, J. Endocrinol., 39:583-589). The extraction prior to radioimmunoassay is a necessary step to remove endogenous IGF-binding proteins.
In both experiments, the IGF-I data were analyzed by a two way repeated measure analysis of variance, with day and treatment (GRF analog) as sources of variation. Multiple comparison procedures were there run (Student-Newman Keuls method). A P<0.05 was considered as statistically significant.

Setting [5] is: one intravenous injection, 4 μg/kg, FIG. 2.
Where [6] appears, read: Experiment 1, 20 μg/kg BID SC × 4 days, mean of 6 to 7.
The mark [7] stands for this setting: Experiment 2, 10 μg/kg BID SC × 5 days, mean of 8.
The mark [8] stands for this setting: Experiment 2, 20 μg/kg BID SC × 5 days, mean of 8.
The mark [9] stands for this setting: Experiment 2, 40 μg/kg BID SC × 5 days, mean of 8.
[10] abbreviates: Experiment 3, 20 μg/kg BID SC × 5 days, mean of 8.

Turning to “(Hexenoyl trans-3)0 hGRF (1-29) NH2 (YADAIFTNSYRKVLGQLSARKLLQDIMSR; HELM PEPTIDE1{[CC/C=C/CC(=O)[*:2]].Y.A.D.A.I.F.T.N.S.Y.R.K.V.L.G.Q.L.S.A.R.K.L.L.Q.D.I.M.S.R.[am]}$$$$V2.0; SMILES CC/C=C/CC(=O)N[C@@H](Cc1ccc(O)cc1)C(=O)N[C@@H](C)C(=O)N[C@@H](CC(=O)O)C(=O)N[C@@H](C)C(=O)N[C@H](C(=O)N[C@@H](Cc1ccccc1)C(=O)N[C@H](C(=O)N[C@@H](CC(N)=O)C(=O)N[C@@H](CO)C(=O)N[C@@H](Cc1ccc(O)cc1)C(=O)N[C@@H](CCCNC(=N)N)C(=O)N[C@@H](CCCCN)C(=O)N[C@H](C(=O)N[C@@H](CC(C)C)C(=O)NCC(=O)N[C@@H](CCC(N)=O)C(=O)N[C@@H](CC(C)C)C(=O)N[C@@H](CO)C(=O)N[C@@H](C)C(=O)N[C@@H](CCCNC(=N)N)C(=O)N[C@@H](CCCCN)C(=O)N[C@@H](CC(C)C)C(=O)N[C@@H](CC(C)C)C(=O)N[C@@H](CCC(N)=O)C(=O)N[C@@H](CC(=O)O)C(=O)N[C@H](C(=O)N[C@@H](CCSC)C(=O)N[C@@H](CO)C(=O)N[C@@H](CCCNC(=N)N)C(N)=O)[C@@H](C)CC)C(C)C)[C@@H](C)O)[C@@H](C)CC; UniProt P01286 32-60, looked up, fragment) [hexenoyl trans3-hGRF(1-29)NH2]”, in the assay with serum IGF-I [1], the “D-IGF-I: increase in IGF-I levels from day 1 (pretreatment) to day 6” value is on record as “significantly increased IGF-I levels”. Also, the “effect on GH area under the curve (0 to 300 minutes following injection)” value with pig serum GH [2] (0.25 μg/kg), in the assay on pig serum GH [2] (1 μg/kg) and in the assay with pig serum GH [2] (4 μg/kg) was “significant response” in each case. Moreover, in the assay on pig serum GH [2] (setting [5]), the “GH response in the first 60 minutes” value is given as “moderate”. The “duration of GH release following injection” value with pig serum GH [2] (setting [5]) is listed as “approximately 260 minutes”. Besides, the “effect on GH area under the curve, 0 to 420 minutes following injection” value with pig serum GH [3] (5 μg/kg) and with pig serum GH [3] (20 μg/kg) was “significant increases of the GH AUC” each time. The “duration of GH response following administration” value in the assay with pig serum GH [3] (one subcutaneous injection, 5 μg/kg, FIG. 4) is 240 min.
Regarding “(Hexanoyl)0 hGRF (1-29) NH2 (YADAIFTNSYRKVLGQLSARKLLQDIMSR; HELM PEPTIDE1{[CCCCCC(=O)[*:2]].Y.A.D.A.I.F.T.N.S.Y.R.K.V.L.G.Q.L.S.A.R.K.L.L.Q.D.I.M.S.R.[am]}$$$$V2.0; SMILES CCCCCC(=O)N[C@@H](Cc1ccc(O)cc1)C(=O)N[C@@H](C)C(=O)N[C@@H](CC(=O)O)C(=O)N[C@@H](C)C(=O)N[C@H](C(=O)N[C@@H](Cc1ccccc1)C(=O)N[C@H](C(=O)N[C@@H](CC(N)=O)C(=O)N[C@@H](CO)C(=O)N[C@@H](Cc1ccc(O)cc1)C(=O)N[C@@H](CCCNC(=N)N)C(=O)N[C@@H](CCCCN)C(=O)N[C@H](C(=O)N[C@@H](CC(C)C)C(=O)NCC(=O)N[C@@H](CCC(N)=O)C(=O)N[C@@H](CC(C)C)C(=O)N[C@@H](CO)C(=O)N[C@@H](C)C(=O)N[C@@H](CCCNC(=N)N)C(=O)N[C@@H](CCCCN)C(=O)N[C@@H](CC(C)C)C(=O)N[C@@H](CC(C)C)C(=O)N[C@@H](CCC(N)=O)C(=O)N[C@@H](CC(=O)O)C(=O)N[C@H](C(=O)N[C@@H](CCSC)C(=O)N[C@@H](CO)C(=O)N[C@@H](CCCNC(=N)N)C(N)=O)[C@@H](C)CC)C(C)C)[C@@H](C)O)[C@@H](C)CC; UniProt P01286 32-60, looked up, fragment) [[hexanoyl^0] hGRF(1-29)NH2]”, the “serum IGF-I, Day 2” value with serum IGF-I [4] (setting [6]) worked out at 281 ng/mL; in the assay on serum IGF-I [4] (setting [7]), 327 ng/mL; in the assay on serum IGF-I [4] (setting [8]) it was 341 ng/mL; in the assay on serum IGF-I [4] (setting [9]), 275 ng/mL; in the assay on serum IGF-I [4] (setting [10]), 292 ng/mL. The “serum IGF-I, Day 3” value stood at 299 ng/mL in the assay with serum IGF-I [4] (setting [6]); 337 ng/mL in the assay on serum IGF-I [4] (setting [7]); 368 ng/mL in the assay on serum IGF-I [4] (setting [8]); 319 ng/mL in the assay with serum IGF-I [4] (setting [9]); 292 ng/mL in the assay on serum IGF-I [4] (setting [10]). The “serum IGF-I, Day 4” value with serum IGF-I [4] (setting [6]) was found to be 319 ng/mL; in the assay on serum IGF-I [4] (setting [7]), 338 ng/mL; in the assay on serum IGF-I [4] (setting [8]) it was 362 ng/mL; in the assay with serum IGF-I [4] (setting [9]) it was 354 ng/mL; in the assay with serum IGF-I [4] (setting [10]), 315 ng/mL. For the same substance, the “serum IGF-I, Day 5” value in the assay on serum IGF-I [4] (setting [6]) was 342 ng/mL; in the assay on serum IGF-I [4] (setting [7]), 366 ng/mL; in the assay with serum IGF-I [4] (setting [8]), 362 ng/mL; with serum IGF-I [4] (setting [9]) it was 350 ng/mL; with serum IGF-I [4] (setting [10]) it was 347 ng/mL. In addition, the “serum IGF-I, Day 1 (pretreatment)” value in the assay with serum IGF-I [4] (setting [6]) amounted to 248 ng/mL; with serum IGF-I [4] (setting [7]) it was 303 ng/mL; with serum IGF-I [4] (setting [8]) it was 302 ng/mL; in the assay on serum IGF-I [4] (setting [9]), 252 ng/mL; with serum IGF-I [4] (setting [10]) it was 272 ng/mL. Moreover, the “increase in IGF-I levels” value in the assay on serum IGF-I [4] (Experiment 1, day 4) is listed as 29%; with serum IGF-I [4] (Experiment 1, day 5), 38%; in the assay with serum IGF-I [4] (Experiment 3, day 5), 28%; with serum IGF-I [4] (Experiment 3, day 6) it was 31%. Also, the “serum IGF-I, Day 6” value in the assay on serum IGF-I [4] (setting [7]) worked out at 350 ng/mL; in the assay on serum IGF-I [4] (setting [8]), 368 ng/mL; in the assay with serum IGF-I [4] (setting [9]), 374 ng/mL; with serum IGF-I [4] (setting [10]), 356 ng/mL. Besides, in the assay with serum IGF-I [1], the “D-IGF-I: increase in IGF-I levels from day 1 (pretreatment) to day 6” value was “significantly increased IGF-I levels”.
